Results: the supplement of paper PMC10307832

How the values were obtained:
Experiment in all cases: relative viability (nuclei count vs DMSO), 5 days (fraction); higher = more cells survive
[1] = compound: C=CCn1c(=O)c2cnc(Nc3ccc(N4CCN(C)CC4)cc3)nc2n1-c1cccc(C(C)(C)O)n1 [Adavosertib] + CC(C)C[C@H](NC(=O)[C@H](Cc1ccccc1)NC(=O)c1cnccn1)B(O)O [Bortezomib] (partner 0.002 µM)
Procedure, shortened: (§1)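 Lung cancer cell lines, seeded in 1536-well plates, were treated the following day by pin tool with a single drug or with five library-drug doses (not always all listed) in √10 steps on top of a fixed anchor-drug dose. Cells were fixed and nuclei stained in one step after 5 days, and nuclei were counted. Relative viability is the nuclei count for treated wells divided by that for vehicle wells, reported as medians of duplicate plates.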

[2] = compound: COc1nc(N)nc2c1ncn2[C@@H]1O[C@H](CO)[C@@H](O)[C@@H]1O [Nelarabine] + C[C@]1(O)C[C@@H](c2nc(-c3ccc4ccc(-c5ccccc5)nc4c3)c3c(N)nccn32)C1 [Linsitinib] (partner 1 µM)
Procedure, shortened: as §1

[3] = compound: C=CCn1c(=O)c2cnc(Nc3ccc(N4CCN(C)CC4)cc3)nc2n1-c1cccc(C(C)(C)O)n1 [Adavosertib] + CC(=O)Nc1cccc(-n2c(=O)n(C3CC3)c(=O)c3c(Nc4ccc(I)cc4F)n(C)c(=O)c(C)c32)c1 [Trametinib] (partner 0.02 µM)
Procedure, shortened: as §1

[4] = compound: COc1nc(N)nc2c1ncn2[C@@H]1O[C@H](CO)[C@@H](O)[C@@H]1O [Nelarabine] + CC(C)C[C@H](NC(=O)[C@H](Cc1ccccc1)NC(=O)c1cnccn1)B(O)O [Bortezomib] (partner 0.002 µM)
Procedure, shortened: as §1

In the case of EMC-BAC-2, the relative viability ([1]; first compound 0.01 µM) was 0.987, the relative viability ([1]; first compound 0.03162 µM) was 0.989 and the relative viability ([1]; first compound 0.1 µM) was 1.06. The relative viability ([1]; first compound 0.3162 µM) was 1.04, the relative viability ([2]; first compound 0.01 µM) was 0.958 and the relative viability ([2]; first compound 0.03162 µM) was 0.781. It also gave a relative viability ([2]; first compound 0.1 µM) of 0.83, a relative viability ([2]; first compound 0.3162 µM) of 0.831 and a relative viability ([2]; first compound 1 µM) of 0.859. For the same cell line, the relative viability ([3]; first compound 0.03162 µM) was 0.938, the relative viability ([3]; first compound 0.1 µM) was 0.894 and the relative viability ([3]; first compound 0.3162 µM) was 0.927. It also gave a relative viability ([4]; first compound 0.01 µM) of 1.24, a relative viability ([4]; first compound 0.03162 µM) of 1.06 and a relative viability ([4]; first compound 0.1 µM) of 1.05. It also gave a relative viability ([4]; first compound 0.3162 µM) of 1.15 and a relative viability ([4]; first compound 1 µM) of 1.04.
